According to PubChem BioAssay AID1963964 (Molecular Pharmacology Branch, DTP, NCI, 2024):

System: 997726-040-R-J2-PDC tumor spheroids, viability
Test: Anticancer human tumor 997726-040-R-J2-PDC patient-derived squamous cell lung carcinoma cell line growth inhibition [PI3K]
Conditions: spheroids with HUVEC and MSC; for IC50: curve of first compound; for viability, T/C: stronger effect = lower value; active means viability on the fitted dose curve at most 10% of control; inactive means the rest
In short: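 High-throughput combination screen: PI3K inhibitors crossed with targeted small molecules on complex spheroids of tumor cells, HUVEC and MSCs at 37 degrees C, 5% CO2. Top concentration was at or near clinical Cmax (otherwise 10 microM), with half-log decrements.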

[1] = second compound 0.0316 µM, first compound 0.0316 µM
[2] = second compound 0.0316 µM, first compound 0.1 µM
[3] = second compound 0.0316 µM, first compound 0.316 µM
[4] = second compound 0.0316 µM, first compound 1 µM
[5] = second compound 0.0316 µM, first compound 3.16 µM
[6] = second compound 0.0316 µM, first compound 10 µM
[7] = second compound 0.1 µM, first compound 0.0316 µM
[8] = second compound 0.1 µM, first compound 0.1 µM
[9] = second compound 0.1 µM, first compound 0.316 µM
[10] = second compound 0.1 µM, first compound 1 µM
[11] = second compound 0.1 µM, first compound 3.16 µM
[12] = second compound 0.1 µM, first compound 10 µM
[13] = second compound 0.316 µM, first compound 0.0316 µM
[14] = second compound 0.316 µM, first compound 0.1 µM
[15] = second compound 0.316 µM, first compound 0.316 µM
[16] = second compound 0.316 µM, first compound 1 µM
[17] = second compound 0.316 µM, first compound 3.16 µM
[18] = second compound 0.316 µM, first compound 10 µM
[19] = second compound 1 µM, first compound 0.0316 µM
[20] = second compound 1 µM, first compound 0.1 µM
[21] = second compound 1 µM, first compound 0.316 µM
[22] = second compound 1 µM, first compound 1 µM
[23] = second compound 1 µM, first compound 3.16 µM
[24] = second compound 1 µM, first compound 10 µM
[25] = second compound 3.16 µM, first compound 0.0316 µM
[26] = second compound 3.16 µM, first compound 0.1 µM
[27] = second compound 3.16 µM, first compound 0.316 µM
[28] = second compound 3.16 µM, first compound 1 µM
[29] = second compound 3.16 µM, first compound 3.16 µM
[30] = second compound 3.16 µM, first compound 10 µM
[31] = second compound 10 µM, first compound 0.0316 µM
[32] = second compound 10 µM, first compound 0.1 µM
[33] = second compound 10 µM, first compound 0.316 µM
[34] = second compound 10 µM, first compound 1 µM
[35] = second compound 10 µM, first compound 3.16 µM
[36] = second compound 10 µM, first compound 10 µM
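Further: spheroids exposed to compounds for seven days before readout.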

C#Cc1c(F)ccc2cc(O)cc(-c3ncc4c(N5CC6CCC(C5)N6)nc(OCC56CCCN5CC(F)C6)nc4c3F)c12 (stereo not given) + CC(Nc1ncnc2nc[nH]c12)c1cc2cccc(Cl)c2c(=O)n1-c1ccccc1
< 0.0316 µM: IC50 (second compound 10 µM)
inactive: viability, T/C [1] 90.6% | viability, T/C [2] 99.3% | viability, T/C [3] 101% | viability, T/C [4] 85.7% | viability, T/C [5] 88.1% | viability, T/C [6] 96% | viability, T/C [7] 101% | viability, T/C [8] 96.5% | viability, T/C [9] 83.3% | viability, T/C [10] 97.6% | viability, T/C [11] 82.1% | viability, T/C [12] 73.3% | viability, T/C [13] 97.1% | viability, T/C [14] 103% | viability, T/C [15] 98% | viability, T/C [16] 94% | viability, T/C [17] 95.7% | viability, T/C [18] 61.5% | viability, T/C [19] 87.3% | viability, T/C [20] 93.8% | viability, T/C [21] 82.7% | viability, T/C [22] 84.6% | viability, T/C [23] 79.9% | viability, T/C [24] 63.5% | viability, T/C [25] 71.6% | viability, T/C [26] 68.3% | viability, T/C [27] 61.4% | viability, T/C [28] 72.3% | viability, T/C [29] 65.3% | viability, T/C [30] 57.7% | viability, T/C [31] 49.1% | viability, T/C [32] 50.1% | viability, T/C [33] 45.3% | viability, T/C [34] 45.5% | viability, T/C [35] 39.1% | viability, T/C [36] 35.1%
> 10 µM: IC50 (second compound 0.0316 µM) | IC50 (second compound 0.1 µM) | IC50 (second compound 0.316 µM) | IC50 (second compound 1 µM) | IC50 (second compound 3.16 µM)

C=CC(=O)N1CCN(c2nc(=O)n(-c3c(C)ccnc3C(C)C)c3nc(-c4c(O)cccc4F)c(F)cc23)C(C)C1 (stereo not given) + CC(Nc1ncnc2nc[nH]c12)c1cc2cccc(Cl)c2c(=O)n1-c1ccccc1
> 10 µM: IC50 (second compound 0.0316 µM) | IC50 (second compound 0.1 µM) | IC50 (second compound 0.316 µM) | IC50 (second compound 1 µM) | IC50 (second compound 3.16 µM) | IC50 (second compound 10 µM)
inactive: viability, T/C [1] 91.5% | viability, T/C [2] 112% | viability, T/C [3] 107% | viability, T/C [4] 106% | viability, T/C [5] 123% | viability, T/C [6] 130% | viability, T/C [7] 108% | viability, T/C [8] 103% | viability, T/C [9] 101% | viability, T/C [10] 104% | viability, T/C [11] 113% | viability, T/C [12] 126% | viability, T/C [13] 104% | viability, T/C [14] 95% | viability, T/C [15] 104% | viability, T/C [16] 102% | viability, T/C [17] 133% | viability, T/C [18] 113% | viability, T/C [19] 86.7% | viability, T/C [20] 86.4% | viability, T/C [21] 92.7% | viability, T/C [22] 98.4% | viability, T/C [23] 120% | viability, T/C [24] 109% | viability, T/C [25] 72.2% | viability, T/C [26] 75.4% | viability, T/C [27] 78.9% | viability, T/C [28] 85.3% | viability, T/C [29] 96.2% | viability, T/C [30] 95.6% | viability, T/C [31] 58.1% | viability, T/C [32] 51% | viability, T/C [33] 60.8% | viability, T/C [34] 55.8% | viability, T/C [35] 64.7% | viability, T/C [36] 68.8%

CC(Cn1ccc(-c2ccc(C#N)c(Cl)c2)n1)NC(=O)c1cc(C(C)O)[nH]n1 (stereo not given) + CC(Nc1ncnc2nc[nH]c12)c1cc2cccc(Cl)c2c(=O)n1-c1ccccc1
> 10 µM: IC50 (second compound 0.0316 µM) | IC50 (second compound 0.1 µM) | IC50 (second compound 0.316 µM) | IC50 (second compound 1 µM) | IC50 (second compound 3.16 µM) | IC50 (second compound 10 µM)
inactive: viability, T/C [1] 100% | viability, T/C [2] 88.5% | viability, T/C [3] 104% | viability, T/C [4] 109% | viability, T/C [5] 100% | viability, T/C [6] 105% | viability, T/C [7] 108% | viability, T/C [8] 100% | viability, T/C [9] 109% | viability, T/C [10] 96.4% | viability, T/C [11] 116% | viability, T/C [12] 108% | viability, T/C [13] 94.3% | viability, T/C [14] 92.1% | viability, T/C [15] 95.1% | viability, T/C [16] 92.6% | viability, T/C [17] 101% | viability, T/C [18] 98.2% | viability, T/C [19] 93.9% | viability, T/C [20] 88.4% | viability, T/C [21] 91.6% | viability, T/C [22] 87.2% | viability, T/C [23] 91.5% | viability, T/C [24] 88.2% | viability, T/C [25] 78.1% | viability, T/C [26] 70.5% | viability, T/C [27] 71.2% | viability, T/C [28] 68.9% | viability, T/C [29] 80.9% | viability, T/C [30] 72.5% | viability, T/C [31] 51.5% | viability, T/C [32] 56.2% | viability, T/C [33] 48.9% | viability, T/C [34] 53.7% | viability, T/C [35] 51.5% | viability, T/C [36] 52.8%

Cn1ncc(Cl)c1-c1cc(C(=O)NC(CN)Cc2cccc(F)c2)sc1Cl (stereo not given) + CC(Nc1ncnc2nc[nH]c12)c1cc2cccc(Cl)c2c(=O)n1-c1ccccc1
0.0769 µM: IC50 (second compound 3.16 µM)
0.113 µM: IC50 (second compound 0.316 µM)
active: viability, T/C [36] 9.74%
0.118 µM: IC50 (second compound 0.1 µM)
0.112 µM: IC50 (second compound 0.0316 µM)
0.128 µM: IC50 (second compound 1 µM)
inactive: viability, T/C [1] 79.2% | viability, T/C [2] 52.6% | viability, T/C [3] 26.7% | viability, T/C [4] 16.1% | viability, T/C [5] 9.99% | viability, T/C [6] 12.3% | viability, T/C [7] 71.1% | viability, T/C [8] 52.8% | viability, T/C [9] 30.5% | viability, T/C [10] 14.9% | viability, T/C [11] 10.7% | viability, T/C [12] 12.4% | viability, T/C [13] 78.2% | viability, T/C [14] 52.8% | viability, T/C [15] 26.3% | viability, T/C [16] 16% | viability, T/C [17] 11.8% | viability, T/C [18] 13.8% | viability, T/C [19] 72.7% | viability, T/C [20] 56.5% | viability, T/C [21] 26.7% | viability, T/C [22] 16.8% | viability, T/C [23] 12.7% | viability, T/C [24] 12.7% | viability, T/C [25] 66.1% | viability, T/C [26] 44.6% | viability, T/C [27] 27.8% | viability, T/C [28] 15.2% | viability, T/C [29] 12.2% | viability, T/C [30] 12.8% | viability, T/C [31] 51.5% | viability, T/C [32] 38.8% | viability, T/C [33] 21.2% | viability, T/C [34] 13.3% | viability, T/C [35] 10%
0.0363 µM: IC50 (second compound 10 µM)

Cn1nccc1Nc1nccc(-c2ccn(C(CO)c3ccc(Cl)c(F)c3)c(=O)c2)n1 (stereo not given) + CC(Nc1ncnc2nc[nH]c12)c1cc2cccc(Cl)c2c(=O)n1-c1ccccc1
0.0708 µM: IC50 (second compound 10 µM)
inactive: viability, T/C [1] 93.3% | viability, T/C [2] 81.7% | viability, T/C [3] 77.2% | viability, T/C [4] 69.3% | viability, T/C [5] 64.2% | viability, T/C [6] 59.5% | viability, T/C [7] 91.6% | viability, T/C [8] 90.1% | viability, T/C [9] 73.9% | viability, T/C [10] 69.4% | viability, T/C [11] 62.5% | viability, T/C [12] 61.8% | viability, T/C [13] 89.6% | viability, T/C [14] 93.7% | viability, T/C [15] 74% | viability, T/C [16] 57.2% | viability, T/C [17] 64.3% | viability, T/C [18] 62.4% | viability, T/C [19] 96.5% | viability, T/C [20] 77.6% | viability, T/C [21] 74.2% | viability, T/C [22] 67.6% | viability, T/C [23] 58.8% | viability, T/C [24] 60.2% | viability, T/C [25] 73.9% | viability, T/C [26] 62.7% | viability, T/C [27] 61.6% | viability, T/C [28] 55.6% | viability, T/C [29] 57.8% | viability, T/C [30] 48.2% | viability, T/C [31] 56.2% | viability, T/C [32] 47.6% | viability, T/C [33] 37.2% | viability, T/C [34] 43.6% | viability, T/C [35] 40.4% | viability, T/C [36] 31.1%
> 10 µM: IC50 (second compound 0.0316 µM) | IC50 (second compound 0.1 µM) | IC50 (second compound 0.316 µM) | IC50 (second compound 1 µM) | IC50 (second compound 3.16 µM)
